In ChEMBL document CHEMBL3044559, “Synthesis and antidepressant-like action of N-(2-hydroxyethyl) cinnamamide derivatives in mice” (2011):

What was measured:
Mus musculus [1] = test: Antidepressant like activity in Mus musculus Kunming (mouse) assessed as reduction of immobility time at 40 mg/kg, po measured during last 4 min of 6 min test by tail suspension test (reference value: 105.7 +/- 10.03 sec); format: functional
Mus musculus [2] = test: Antidepressant like activity in Mus musculus Kunming (mouse) assessed as reduction of immobility time at 40 mg/kg, po measured during last 4 min of 6 min test by forced swimming test (reference value: 183.3 +/- 12.67 sec); format: functional

| Compound | Time (Mus musculus [1]) [s] | Time (Mus musculus [2]) [s] |
| --- | --- | --- |
| COc1cccc(/C=C/C(=O)NCCO)c1 | 43.33 | 141 |
| COc1ccc(/C=C/C(=O)NCCO)cc1OC | 39.33 | 157.8 |
| CNCCC(Oc1ccc(C(F)(F)F)cc1)c1ccccc1 (stereo unspecified) [FLUOXETINE] | 14.17 |  |
| O=C(/C=C/c1ccc(Cl)cc1)NCCO | 76.67 | 168 |
| CN(C)c1ccc(/C=C/C(=O)NCCO)cc1 | 64.67 | 105.5 |
| COc1ccc(/C=C/C(=O)NCCO)cc1 | 31.33 | 167.5 |
| O=C(/C=C/c1ccc(O)cc1)NCCO | 71 | 133.3 |
| COc1ccc(/C=C/C(=O)NCCO)c(OC)c1 | 39.67 | 143.5 |
| COc1cc(/C=C/C(=O)NCCO)cc(OC)c1OC | 76.33 | 165.5 |
| O=C(/C=C/c1ccccc1O)NCCO | 44.83 | 146.7 |
| COc1ccccc1/C=C/C(=O)NCCO | 38.67 | 159.1 |
| COc1cc(/C=C/C(=O)NCCO)ccc1O | 45 | 55 |
| O=C(/C=C/c1ccccc1)NCCO [IDROCILAMIDE] | 25 | 101.2 |
| O=C(/C=C/c1ccc(F)cc1)NCCO | 75 | 130.8 |
| O=C(/C=C/c1ccc(Br)cc1)NCCO | 57 | 119.7 |
| O=C(/C=C/c1cccc(O)c1)NCCO | 54 | 102.8 |
